Test results published in ChEMBL document CHEMBL1201862, “PubChem BioAssay data set” (2004).
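Method: 48-hour compound exposure of cells in 96-well plates, five concentrations, linear interpolation of endpoints. GI50 is the concentration that inhibits growth by half.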 Calls of active or inactive are those of the source. No stated cut-off is given here; in the data, active = GI50 up to about 1.1 µM and inactive = higher.

Legend:
Test in all cases: inhibition of tumour cell growth, NCI panel, 48 h
[1] = system: HOP-62
[2] = system: CAKI-1
[3] = system: T47D
[4] = system: SF-268
[5] = system: BT-549
[6] = system: MCF7
[7] = system: HCT-15
[8] = system: SW-620
[9] = system: HL-60
[10] = system: UO-31
[11] = system: CCRF-CEM
[12] = system: LOX IMVI
[13] = system: RPMI-8226
[14] = system: SK-MEL-28
[15] = system: HT-29
[16] = system: K562
[17] = system: SR
[18] = system: NCI-H522
[19] = system: U-251
[20] = system: MDA-N

| SMILES | GI50 [1] | GI50 [2] | GI50 [3] | GI50 [4] | GI50 [5] | GI50 [6] | GI50 [7] | GI50 [8] | GI50 [9] | GI50 [10] | GI50 [11] | GI50 [12] | GI50 [13] | GI50 [14] | GI50 [15] | GI50 [16] | GI50 [17] | GI50 [18] | GI50 [19] | GI50 [20] |
| --- | --- | --- | --- | --- | --- | --- | --- | --- | --- | --- | --- | --- | --- | --- | --- | --- | --- | --- | --- | --- |
| Clc1ccc(OCC2NC3CCC2CC3)cn1 (stereo not given) | 22.8 µM (inactive) | 42.5 µM (inactive) | 29.8 µM (inactive) | 51.6 µM (inactive) | 68.7 µM (inactive) | 17.9 µM (inactive) | 20.7 µM | 22.7 µM (inactive) | 24.4 µM (inactive) | 2.45 µM (inactive) | 25 µM (inactive) | 18.4 µM (inactive) | 13.4 µM (inactive) | 37.8 µM (inactive) | 17.9 µM (inactive) | 17.5 µM (inactive) | 18.7 µM (inactive) | 19 µM (inactive) | 16.3 µM (inactive) | 16.8 µM (inactive) |
| O=CNNC(=O)CSc1nc2ccc(I)cc2c(=O)n1Cc1ccccc1 | 37.1 µM (inactive) | 22.2 µM (inactive) | 33.4 µM (inactive) | 35.4 µM (inactive) | 41.7 µM (inactive) | 37.2 µM (inactive) | 40.7 µM | 44.8 µM (inactive) | 47.5 µM (inactive) | 1.72 µM (inactive) | 23.7 µM (inactive) | 25.4 µM (inactive) | < 0.01 µM (active) | 79.8 µM (inactive) | 34.9 µM (inactive) | 8.79 µM (inactive) | 32.2 µM (inactive) | 20.9 µM (inactive) | 36.6 µM (inactive) | 32.3 µM (inactive) |
| O=C1c2ccccc2C(=O)N1CCSCC(CO)SCCN1C(=O)c2ccccc2C1=O (stereo not given) | > 100 µM (inactive) | > 100 µM (inactive) | 86.9 µM (inactive) | > 100 µM (inactive) | > 100 µM (inactive) | > 100 µM (inactive) | > 100 µM | > 100 µM (inactive) | 9.98 µM (inactive) | > 100 µM (inactive) | 59.8 µM (inactive) | > 100 µM (inactive) | 80.2 µM (inactive) | > 100 µM (inactive) | > 100 µM (inactive) | 75.3 µM (inactive) | > 100 µM (inactive) | 62.5 µM (inactive) | > 100 µM (inactive) | > 100 µM (inactive) |
| COC(=O)c1c2c(cc3c1CCC3)CCC2 | > 100 µM (inactive) | 72.4 µM (inactive) | 13.3 µM (inactive) | 95.7 µM (inactive) | 95.9 µM (inactive) | 38.7 µM (inactive) | 57.8 µM | > 100 µM (inactive) | 15.5 µM (inactive) | 72.8 µM (inactive) | 20.1 µM (inactive) | 39.4 µM (inactive) | 20.2 µM (inactive) | 53.6 µM (inactive) | 26.3 µM (inactive) | 29.6 µM (inactive) | 18.2 µM (inactive) | 46.6 µM (inactive) | 51.9 µM (inactive) | 55.3 µM (inactive) |
| COc1cc(O)c(C(=O)/C=C/c2ccc(O)cc2)cc1Oc1ccc(C(=O)/C=C/c2ccc(O)cc2)c(O)c1 [RHUSCHALCONE IV] | 4.47 µM (inactive) | 3.5 µM (inactive) | 2.29 µM (inactive) | 2.96 µM (inactive) | 2.92 µM (inactive) | 2.69 µM (inactive) | 1.79 µM | 3.36 µM (inactive) | 3.65 µM (inactive) | 2.56 µM (inactive) | 2.66 µM (inactive) | 3.4 µM (inactive) | 2.34 µM (inactive) | 1.95 µM (inactive) | 1.36 µM (inactive) | 3.39 µM (inactive) | 2.38 µM (inactive) | 1.94 µM (inactive) | 1.93 µM (inactive) | 3.21 µM (inactive) |
